IC50 data for 22 compounds are collected here from US10335399B2, “Chromane, isochromane and dihydroisobenzofuran derivatives as mGluR2—negative allosteric modulators, compositions, and their use” (Merck Sharp & Dohme Corp., priority 2016, dated 2019).

Bounds are passed on as bounds.

Sequence of recombinant human mGluR2 (Q14416 19-872): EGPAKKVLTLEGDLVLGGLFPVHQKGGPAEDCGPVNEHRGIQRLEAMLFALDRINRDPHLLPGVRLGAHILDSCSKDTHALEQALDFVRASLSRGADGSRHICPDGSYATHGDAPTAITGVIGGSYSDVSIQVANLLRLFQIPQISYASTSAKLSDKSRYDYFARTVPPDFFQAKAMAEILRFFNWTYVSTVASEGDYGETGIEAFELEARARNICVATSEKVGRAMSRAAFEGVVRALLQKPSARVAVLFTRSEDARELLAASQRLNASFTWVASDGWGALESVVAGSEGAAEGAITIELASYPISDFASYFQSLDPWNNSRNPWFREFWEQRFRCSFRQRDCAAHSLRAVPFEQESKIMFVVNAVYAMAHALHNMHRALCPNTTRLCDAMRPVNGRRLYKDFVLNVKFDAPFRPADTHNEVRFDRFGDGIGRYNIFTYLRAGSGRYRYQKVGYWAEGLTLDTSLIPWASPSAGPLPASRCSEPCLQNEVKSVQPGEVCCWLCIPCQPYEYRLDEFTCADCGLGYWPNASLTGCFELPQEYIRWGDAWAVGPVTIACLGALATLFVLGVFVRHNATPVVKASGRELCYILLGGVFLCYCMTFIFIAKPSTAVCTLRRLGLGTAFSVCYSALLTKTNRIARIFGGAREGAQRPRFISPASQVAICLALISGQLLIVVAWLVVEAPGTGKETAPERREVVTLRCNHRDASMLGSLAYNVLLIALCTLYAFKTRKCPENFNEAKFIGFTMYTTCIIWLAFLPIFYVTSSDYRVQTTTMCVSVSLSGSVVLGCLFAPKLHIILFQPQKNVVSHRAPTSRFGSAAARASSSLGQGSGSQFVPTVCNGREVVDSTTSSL

This experiment has as its target recombinant human mGluR2 (Homo sapiens (Human), UniProt Q14416). Description: FLIPR Ca2+ mobilization assay: inhibition of glutamate-dependent mGluR2 activity. The class given is cell-based. The note with it: CHO dhfr- cells stably expressing recombinant human mGluR2 and Gα16, Fluo-4 AM, FLIPR384; inhibition of response to 2,500 nM glutamate. How it is done:
Inhibition constants (IC50s; the concentration of compound required to provide 50% of maximal activity) are determined as follows. The compounds of the invention were tested in a fluorescence laser imaging plate reader based assay. This assay is a common functional assay to monitor Ca^2+ mobilization in whole cells expressing recombinant receptor coupled with a promiscuous G-protein. CHO (Chinese hamster ovary) dhfr− cells stably expressing recombinant human mGluR2 and Gα16 loaded with Fluo-4 AM (Invitrogen, Carlsbad Calif., USA) were treated with various concentrations of each of the tested compounds of the invention and the Ca^2+ response was monitored on a FLIPR384 instrument (Molecular Devices, Sunnydale Calif., USA). […] The maximum calcium response at each concentration of compound for agonist or antagonist were plotted as dose responses and the curves were fitted with a four parameter logistic equation giving IC50 and Hill coefficient using the iterative non-linear curve fitting software ADA (Merck & Co., Inc.). Data in the following table lists the activity of each compound to inhibit glutamate-dependent mGluR2 activity in this cellular assay.
A general note: Calcium flux is commonly read through the fluorescence of an indicator in the cells.
As a reminder, the IC50 is the concentration that inhibits the measured activity by half. For `C[C@H]1Cc2c(-c3ccc(F)cc3F)cc(C(N)=O)nc2O[C@@H]1COC(F)F` (single isomer, unassigned) [Example 3-9B], the IC50 was determined as 19 nM. Consider `CN(C[C@H]1CCc2c(-c3ccc(F)cc3F)cc(C(N)=O)nc2O1)CC(F)(F)F` (single isomer, unassigned) [Example 4-1B], for which the IC50 was determined as 74 nM.

With `NC(=O)c1cc(-c2ncc(F)cc2F)c2c(n1)[C@H]1CC[C@@H](C2)O1` (single isomer, unassigned) [Example 1-6A], the IC50 was over 3000 nM. `NC(=O)c1cc(-c2ccc(F)cc2F)c2c(n1)O[C@@H](CO)CC2` (single isomer, unassigned) [Example 2-1B]: the IC50 turned out to be 179 nM. `NC(=O)c1cc(-c2ncc(Cl)cc2F)c2c(n1)[C@H]1CC[C@@H](C2)O1` (single isomer, unassigned) [Example 1-7A]: the IC50 is over 3000 nM. With `CC1(C)CCc2c(-c3ccc(F)cc3F)cc(C(N)=O)nc2O1` [Example 2-5, 5-(2,4-difluorophenyl)-2,2-dimethyl-3,4-dihydro-2H-pyrano[2,3-b]pyridine-7-carboxamide], the IC50 amounted to 6 nM.

On to `NC(=O)c1cc(-c2ccc(F)cc2F)c2c(n1)O[C@H](CC(F)(F)F)CC2` (single isomer, unassigned) [Example 3-8A], for which the IC50 turned out to be 12 nM. On to `NC(=O)c1cc(-c2ccc(F)cc2)c2c(n1)OC(COC(F)F)CC2` (single isomer, unassigned) [Example 3-2A, (S)- or (R)-2-((difluoro-methoxy)methyl)-5-(4-fluorophenyl)-3,4-dihydro-2H-pyrano[2,3-b]pyridine-7-carboxamide], for which the IC50 stood at 18 nM. As to `C[C@@H](OC(F)F)[C@H]1CCc2c(-c3ccc(F)cc3F)cc(C(N)=O)nc2O1` [Example 2-9D, (R)-2-((R)-1-(difluoromethoxy)ethyl)-5-(2,4-difluorophenyl)-3,4-dihydro-2H-pyrano[2,3-b]pyridine-7-carboxamide], the IC50 stood at 57 nM. As to `NC(=O)c1cc(-c2ccc(F)cc2F)c2c(n1)[C@H]1CC[C@@H]2O1` (single isomer, unassigned) [Example 5-1A], the IC50 turned out to be 159 nM. The same measure for `Cc1ncc(-c2cc(C(N)=O)nc3c2CCC(COC(F)F)O3)s1` (single isomer, unassigned) [Example 3-3B, (R)- or (S)-2-((difluoro-methoxy)methyl)-5-(2-methylthiazol-5-yl)-3,4-dihydro-2H-pyrano[2,3-b]pyridine-7-carboxamide]: 2520 nM; for `NC(=O)c1cc(-c2ccc(F)cc2)c2c(n1)OC(COC(F)F)CC2` (single isomer, unassigned) [Example 3-2B, (R)- or (S)-2-((difluoro-methoxy)methyl)-5-(4-fluorophenyl)-3,4-dihydro-2H-pyrano[2,3-b]pyridine-7-carboxamide]: 86 nM. Turning to `C[C@H]1CCc2c(-c3ccc(F)cc3F)cc(C(N)=O)nc2O1` (single isomer, unassigned) [Example 2-6B], the IC50 was found to be 26 nM.

With `Cn1cc(-c2cc(C(N)=O)nc3c2CC2CCC3O2)cn1` (single isomer, unassigned) [Example 1-4A, (6R,9S)- or (6S,9R)-4-(1-methyl-1H-pyrazol-4-yl)-6,7,8,9-tetrahydro-5H-6,9-epoxycyclo-hepta[b]pyridine-2-carboxamide], the IC50 was over 3000 nM. The same measure for `C[C@H]1Cc2c(-c3ccc(F)cc3F)cc(C(N)=O)nc2O[C@@H]1CO` [Example 2-2B, (2S,3S)-5-(2,4-difluorophenyl)-2-(hydroxymethyl)-3-methyl-3,4-dihydro-2H-pyrano[2,3-b]pyridine-7-carboxamide]: 15 nM; for `C[C@H](OC(F)F)[C@@H]1CCc2c(-c3ccc(F)cc3F)cc(C(N)=O)nc2O1` (single isomer, unassigned) [Example 2-9A]: 18 nM. With `NC(=O)c1cc(-c2ncc(Cl)cc2F)c2c(n1)[C@@H]1CC[C@H](C2)O1` (single isomer, unassigned) [Example 1-7B] the figure was 172 nM. Take `C[C@@H]1Cc2c(-c3ccc(F)cc3F)cc(C(N)=O)nc2O[C@@H]1CO` [Example 2-2A, (2S,3R)-5-(2,4-difluorophenyl)-2-(hydroxymethyl)-3-methyl-3,4-dihydro-2H-pyrano[2,3-b]pyridine-7-carboxamide]: the concentration for half-maximal inhibition (IC50) stood at 195 nM. With `C[C@H](OC(F)F)[C@H]1CCc2c(-c3ccc(F)cc3F)cc(C(N)=O)nc2O1` [Example 2-9C, (R)-2-((S)-1-(difluoromethoxy)ethyl)-5-(2,4-difluorophenyl)-3,4-dihydro-2H-pyrano[2,3-b]pyridine-7-carboxamide] the figure was 11 nM; with `NC(=O)c1cc(-c2ccc(F)cc2F)c2c(n1)COCC2` [Example 1-1, 4-(2,4-difluorophenyl)-5,8-dihydro-6H-pyrano[3,4-b]pyridine-2-carboxamide], 277 nM. With `NC(=O)c1cc(-c2ccc(F)cc2F)c2c(n1)O[C@H](CNCC(F)(F)F)CC2` [Example 4-2A, (S)-5-(2,4-difluoropheny)-2-(((2,2,2-trifluoroethyl)amino)methyl)-3,4-dihydro-2H-pyrano[2,3-b]pyridine-7-carboxamide], the IC50 turned out to be 21 nM. Take `CC1(C)COc2nc(C(N)=O)cc(-c3ccc(F)cc3F)c2C1` [Example 2-7, 5-(2,4-difluorophenyl)-3,3-dimethyl-3,4-dihydro-2H-pyrano[2,3-b]pyridine-7-carboxamide]: the IC50 was 25 nM.
